Patent publication US4521413A, “Cephem compounds” (Fujisawa Pharmaceutical Co., Ltd., priority 1981, dated 1985)
Converted amounts (≈) assume the structure as drawn.

Assays:
[1] = test system: S. marcescens 35; experiment: Minimal inhibitory concentration (MIC), agar streak test on heart infusion agar; assay type: cell-based; details: Serratia marcescens, 37° C. for 20 hours, 10^8 viable cells per ml
Protocol: (§1) One loopful of an overnight culture of each test strain in Trypticase-soy broth (10^8 viable cells per ml.) was streaked on heart infusion agar (HI-agar) containing graded concentrations of antibiotics, and the minimal inhibitory concentration (MIC) was expressed in terms of μg/ml after incubation at 37° C. for 20 hours.

[2] = test system: B. subtilis ATCC 6633; experiment: as above; assay type: cell-based; details: Bacillus subtilis, ATCC6633, 37° C. for 20 hours, 10^8 viable cells per ml
Protocol: as §1

**Q.** `CCO/N=C(\C(=O)NC1C(=O)N2C(C(=O)[O-])=C(C[n+]3cccc(OC)c3)CSC12)c1nsc(N)n1` (stereo not drawn) [Test Compound (3), 7-[2-Ethoxyimino-2-(5-amino-1,2,4-thiadiazol-3-yl)acetamido]-3-(3-methoxy-1-pyridiniomethyl)-3-cephem-4-carboxylate (syn isomer)] was tested. Which MIC [1] did it give?
**A.** The MIC was 1.56 mg/L (≈ 3 µM).

**Q.** And the MIC [2]?
**A.** The MIC was 0.78 mg/L (≈ 1.5 µM).

**Q.** Which MIC [1] does the source give for `CCO/N=C(\C(=O)NC1C(=O)N2C(C(=O)[O-])=C(C[n+]3cccc(N(C)C)c3)CSC12)c1nsc(N)n1` (stereo not drawn) [Test Compound (2), 7-[2-Ethoxyimino-2-(5-amino-1,2,4-thiadiazol-3-yl)acetamido]-3-(3-dimethylamino-1-pyridiniomethyl)-3-cephem-4-carboxylate (syn isomer)] here?
**A.** Its MIC is 1.56 mg/L (≈ 2.93 µM).

**Q.** And the MIC [2]?
**A.** Its MIC is 0.39 mg/L (≈ 0.732 µM).

**Q.** What does the source list for `CCO/N=C(\C(=O)NC1C(=O)N2C(C(=O)[O-])=C(C[n+]3cccc(NC)c3)CSC12)c1nsc(N)n1` (stereo not drawn) [Test Compound (1), 7-[2-Ethoxyimino-2-(5-amino-1,2,4,-thiadiazol-3-yl)acetamido]-3-(3-methylamino-1-pyridiniomethyl)-3-cephem-4-carboxylate (syn isomer)]?
**A.** MIC [1]: 1.56 mg/L (≈ 3.01 µM); MIC [2]: 0.78 mg/L (≈ 1.5 µM)
